Patent publication US20220017870A1, “METHODS OF IDENTIFYING THERAPEUTIC TARGETS FOR TREATING ANGIOGENESIS” (Advanced Solutions Life Sciences, LLC, priority 2020, published 2022)

Test system: growing MVs (neovessels)
Assay: Effect of DYRK3 inhibition on MV growth in 3D culture
Type: cell-based, human
Description: FIG. 5. Effect of DYRK3 inhibition on MV growth. Phase contrast images of MVs after 9 days of culture, with a single 3-hour exposure of DYRK3 inhibitor after initial neovessel sprouting (day 4). […] Scale=100 μm. Arrows point to neovessels.
For all assays, MVs isolated from human adipose tissue via a limited collagen digestion are embedded (100,000 MV/ml) in a 3 mg/ml collagen gel. This formulation is compatible with a variety of multi-well plates. Whenever possible, assessments are made daily over the course of 1 week, including image acquisition for HCA.
DYRK3 and angiogenesis: To further explore DYRK3 in this model, growing MVs are treated with the small molecule GSK626616, a known DYRK3 inhibitor. Cultures with growing neovessels (in RPMI with B27 and 50 ng/ml VEGF) were treated with 10 μM GSK626616 for 3 hours, and then returned to medium without inhibitor for an additional 6 days.

[1] = 10 μM for 3 hours, then medium without inhibitor for additional 6 days, RPMI with B27 and 50 ng/ml VEGF, qualitative, vs untreated controls

**Q.** Which results are given for `O=C1NC(=Nc2c(Cl)cccc2Cl)S/C1=C\c1ccc2nccnc2c1` [GSK626616]?
**A.** impact on parent MV [1]: did not impact parent MV; neovessel growth [1]: stopped neovessel growth; neovessel regression [1]: may have even caused neovessel regression; neovessels apparent in phase contrast images (after 9 days of culture, single 3-hour exposure after initial neovessel sprouting (day 4)): Fewer neovessels are apparent
